Values quoted from earlier work as cited in patent US7108866B1, “Chronotherapeutic diltiazem formulations and the administration thereof” (Biovall Laboratories International SRL, priority 1999, dated 2006).

Conditions: at steady state

Tmax: 2 to 6 h
SMILES: COc1ccc([C@@H]2Sc3ccccc3N(CCN(C)C)C(=O)[C@@H]2OC(C)=O)cc1 [Diltiazem]
